The values below are quoted from earlier work in US20060110454A1 (priority 2004, published 2006).

Counter-ions that a name gives are not always drawn.

Turning to `CCCN[C@H]1CCc2nc(N)sc2C1` [Pramipexole dihydrochloride, (S)-2-amino-4,5,6,7-tetrahydro-6-(propylamino)benzothiazole dihydrochloride monohydrate], the soluble in ethanol entry (ethanol) is given as “about 0.5%”. Also, the soluble in methanol entry (methanol) is listed as “about 8%”. Also, the soluble in water entry (water) is given as “more than 20%”.
